What is called IC50 is the midpoint of a concentration-inhibition curve.

This test has as its target placental alkaline phosphatase (ALPP), human. Put plainly: PLAP enzyme inhibitors, confirmation, biochemical, luminescence (AID 1512). Conditions: purified PLAP enzyme, luminescent substrate read-out.
As for `CC(C)NCC(=O)c1ccc(O)c(O)c1`, the concentration for half-maximal inhibition (IC50) is 39.3 µM.

For the compound `Cc1cc(C)nc(NCc2ccc(O)c(O)c2)n1`, the IC50 is 51.2 µM.

With `O=C(Cn1ccnc1-c1ccccc1)c1ccc(O)c(O)c1`, the IC50 is 17.2 µM.

For `Cc1cc2ncn(CC(=O)c3ccc(O)c(O)c3)c2cc1C`, the concentration for half-maximal inhibition (IC50) is 5.83 µM.

Take `O=C(CNc1nc2ccccc2[nH]1)c1ccc(O)c(O)c1`: the IC50 is 9.11 µM.

As for `Cc1nc(Br)cn1CC(=O)c1ccc(O)c(O)c1`, the IC50 was 4.96 µM.

With `Cc1cn(CC(=O)c2ccc(O)c(O)c2)cn1`, the 50% inhibitory concentration (IC50) was 5.81 µM.

These data come from PubChem BioAssay AID1512 (Sanford-Burnham Center for Chemical Genomics, 2009).
